The target of test [1] is T1, IRAK1 enzyme (Homo sapiens, UniProt P51617).
T1 construct: purchased Promega VA7477
Description: IRAK1 enzyme activity inhibition (ADP-Glo, Promega kit). Type of test: biochemical. The following applies: for inhibition at 0.1 µM: test compound 0.1 uM; for inhibition at 1 µM: test compound 1 uM. Background: ADP-Glo first removes unused ATP, then detects ADP through luciferase.

The test system of test [2] is hPBMC TNFα. Kind of test: Cell-based inflammatory cytokine secretion inhibition (LPS-stimulated PBMC, hTNF-α ELISA). The following applies: human PBMC, LPS 1 µg/mL, hTNF-α by ELISA, mean; read-out: hPBMC TNFα IC50_mean. As for the experimental part:
An experiment on inflammatory cytokine secretion inhibition of the compound of the present invention was conducted.
PBMC (LONZA, peripheral blood mononuclear cells) isolated from human whole blood was dispensed into a 96-well plate at a density of 1.0 X 10^5 cells/well, and the cells were stabilized for 20 hours. After that, a test compound diluted at each of four concentrations was added to a Roswell Park Memorial Institute (RPMI) medium, reacted for one hour, treated with lipopolysaccharide (LPS) to reach a final concentration of 1 µg/mL, and further reacted for one hour. hTNF-α, which is an inflammatory cytokine, was measured by an enzyme linked immunosorbent assay using an ELISA kit from Goma Biotech. A cell supernatant, a standard drug, and an antibody were added to an ELISA-plate and reacted for four hours in total, after which the plate was washed, reacted with streptavidin-HRP for 30 minutes, and washed again. After that, a TMB substrate was added and reacted in a dark place, and when a color was sufficiently developed, a stop solution was added to stop the reaction. hTNF-α was measured by measuring absorbance at 450 nm using equipment for absorption measurement (Microplate Reader from BioTeK). An activity inhibition rate was calculated from a measured absorbance value, a % inhibition for each concentration of the test compound was calculated, a 50% inhibition concentration (IC50 value) was analyzed through a non-linear regression analysis, and the results are shown in Table 4.

Test [3] addresses T2, IRAK4 enzyme (Homo sapiens, UniProt Q9NWZ3).
T2 construct: purchased Promega V2621
T2 sequence (Q9NWZ3 1-460): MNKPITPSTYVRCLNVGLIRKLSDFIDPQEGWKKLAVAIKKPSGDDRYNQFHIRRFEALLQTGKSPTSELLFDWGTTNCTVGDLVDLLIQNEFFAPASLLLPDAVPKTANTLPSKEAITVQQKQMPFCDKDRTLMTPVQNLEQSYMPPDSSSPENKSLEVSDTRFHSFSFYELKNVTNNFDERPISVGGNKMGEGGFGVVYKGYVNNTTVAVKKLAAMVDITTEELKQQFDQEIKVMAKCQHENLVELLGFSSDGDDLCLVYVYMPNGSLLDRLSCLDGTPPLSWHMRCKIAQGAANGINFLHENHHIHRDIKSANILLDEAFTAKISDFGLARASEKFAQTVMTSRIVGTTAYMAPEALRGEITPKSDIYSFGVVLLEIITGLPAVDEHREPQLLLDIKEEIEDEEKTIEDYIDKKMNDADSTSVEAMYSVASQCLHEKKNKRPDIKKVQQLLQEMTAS
Description: IRAK4 enzyme activity inhibition (ADP-Glo, Promega kit). In kind it is biochemical. The note with it: for inhibition at 0.1 µM: test compound 0.1 uM; for inhibition at 1 µM: test compound 1 uM. In a few lines: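 IRAK4 with MBP/ATP mix (0.1 µg/µL MBP, 1.25 mM ATP before dilution) in 40 mM Tris-HCl pH 7.5, 20 mM MgCl2, BSA, DTT. Compounds were serially diluted from 1 mM and enzyme added at 5 ng/µL, then 60 min at 37°C. ADP-Glo luminescence read-out; IC50 by non-linear regression of % inhibition.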

Each structure is given as a SMILES string.

T1 sequence (P51617 whole entry): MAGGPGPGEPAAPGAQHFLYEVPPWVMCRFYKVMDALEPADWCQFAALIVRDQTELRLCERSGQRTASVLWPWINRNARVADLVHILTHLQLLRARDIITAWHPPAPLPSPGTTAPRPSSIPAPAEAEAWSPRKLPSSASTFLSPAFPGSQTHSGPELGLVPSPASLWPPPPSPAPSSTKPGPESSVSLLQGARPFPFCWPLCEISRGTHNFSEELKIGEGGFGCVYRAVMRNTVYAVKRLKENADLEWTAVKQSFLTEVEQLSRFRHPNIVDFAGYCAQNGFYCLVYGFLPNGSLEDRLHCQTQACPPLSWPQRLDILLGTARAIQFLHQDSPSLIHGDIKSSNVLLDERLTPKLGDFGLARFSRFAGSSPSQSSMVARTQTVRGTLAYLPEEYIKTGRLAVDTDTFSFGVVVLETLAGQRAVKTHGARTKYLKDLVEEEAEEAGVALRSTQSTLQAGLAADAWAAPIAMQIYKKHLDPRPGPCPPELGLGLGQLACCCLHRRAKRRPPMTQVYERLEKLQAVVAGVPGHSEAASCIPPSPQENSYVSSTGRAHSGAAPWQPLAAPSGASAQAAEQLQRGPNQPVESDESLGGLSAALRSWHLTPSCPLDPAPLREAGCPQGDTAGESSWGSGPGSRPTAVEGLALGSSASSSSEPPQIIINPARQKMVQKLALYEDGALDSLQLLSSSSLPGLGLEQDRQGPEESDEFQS

The inhibition is how much of the control response was suppressed. In test [1], `CC(C)(O)CCn1cc2cc(NC(=O)c3cccc(S(N)(=O)=O)c3)c(N3CCOCC3)cc2n1` [Example 15] showed an inhibition at 0.1 µM of 28.5% and an inhibition at 1 µM of 66.5%. Moreover, the IC50 in test [2] was determined as 575 nM. For the same molecule, in test [3], the IC50 came out at 3.7 nM, the inhibition at 0.1 µM is 88.8% and the inhibition at 1 µM is 95.2%.
In the case of `CC(C)(O)CCn1cc2cc(NC(=O)c3cccc(-c4ccn[nH]4)n3)c(N3CCOCC3)cc2n1` [Example 21, N-(2-(3-hydroxy-3-methylbutyl)-6-morpholino-2H-indazol-5-yl)-6-(1H-pyrazol-5-yl)picolinamide], in test [1], the IC50 is 70 nM, at 0.1 µM the inhibition was 67.2% and the inhibition at 1 µM was found to be 82.4%. The IC50 in test [2] came to 11.9 nM. In test [3], this molecule yielded an IC50 of 1.5 nM, an inhibition at 0.1 µM of 89.3% and an inhibition at 1 µM of 97.9%.
Take `CC(C)(O)CCn1cc2cc(NC(=O)c3ccc(N)c([N+](=O)[O-])c3)c(N3CCOCC3)cc2n1` [Example 23, 4-amino-N-(2-(3-hydroxy-3-methylbutyl)-6-morpholino-2H-indazol-5-yl)-3-nitrobenzamide]: the inhibition at 0.1 µM in test [1] came out at 26%; in test [3], 88%. This molecule gave an inhibition at 1 µM in test [1] of 45.3%. Also, the IC50 is 601 nM in test [2] and 10.5 nM in test [3].
Regarding `CC(C)(O)CCn1cc2cc(NC(=O)c3cccc(S(N)(=O)=O)c3)c(N3CCC(C(C)(C)O)CC3)cc2n1` [Example 29, N-(2-(3-hydroxy-3-methylbutyl)-6-(4-(2-hydroxypropan-2-yl)piperidin-1-yl)-2H-indazol-5-yl)-3-sulfamoylbenzamide], the inhibition at 0.1 µM in test [1] worked out at 54.2%; in test [3], 93.3%. Also, the IC50 in test [2] was 20.4 nM; in test [3], 0.88 nM.
`CC(C)(O)CCn1cc2cc(NC(=O)c3cccc([N+](=O)[O-])c3)c(N3CCC(O)CC3)cc2n1` [Example 32, N-(2-(3-hydroxy-3-methylbutyl)-6-(4-hydroxypiperidin-1-yl)-2H-indazol-5-yl)-3-nitrobenzamide]: in test [1], the inhibition at 0.1 µM came out at 17.5% and the inhibition at 1 µM is 52%. The IC50 in test [2] was determined as 113 nM. In test [3], this molecule had an IC50 of 2 nM and an inhibition at 0.1 µM of 87.1%.

(Values after patent EP4737451A1 (Dong Wha Pharm. Co., Ltd., priority 2023, dated 2025).)
